Results on 66 compounds are retold here after patent US20230130766A1 (SALK INSTITUTE FOR BIOLOGICAL STUDIES, priority 2020, published 2023).

For orientation: IC50 means the point on the concentration scale where inhibition reaches its midpoint.

Some results are limits rather than exact numbers.

This experiment has as its target T1, ULK1 (Homo sapiens, UniProt O75385).
T1 sequence (O75385 1-1050): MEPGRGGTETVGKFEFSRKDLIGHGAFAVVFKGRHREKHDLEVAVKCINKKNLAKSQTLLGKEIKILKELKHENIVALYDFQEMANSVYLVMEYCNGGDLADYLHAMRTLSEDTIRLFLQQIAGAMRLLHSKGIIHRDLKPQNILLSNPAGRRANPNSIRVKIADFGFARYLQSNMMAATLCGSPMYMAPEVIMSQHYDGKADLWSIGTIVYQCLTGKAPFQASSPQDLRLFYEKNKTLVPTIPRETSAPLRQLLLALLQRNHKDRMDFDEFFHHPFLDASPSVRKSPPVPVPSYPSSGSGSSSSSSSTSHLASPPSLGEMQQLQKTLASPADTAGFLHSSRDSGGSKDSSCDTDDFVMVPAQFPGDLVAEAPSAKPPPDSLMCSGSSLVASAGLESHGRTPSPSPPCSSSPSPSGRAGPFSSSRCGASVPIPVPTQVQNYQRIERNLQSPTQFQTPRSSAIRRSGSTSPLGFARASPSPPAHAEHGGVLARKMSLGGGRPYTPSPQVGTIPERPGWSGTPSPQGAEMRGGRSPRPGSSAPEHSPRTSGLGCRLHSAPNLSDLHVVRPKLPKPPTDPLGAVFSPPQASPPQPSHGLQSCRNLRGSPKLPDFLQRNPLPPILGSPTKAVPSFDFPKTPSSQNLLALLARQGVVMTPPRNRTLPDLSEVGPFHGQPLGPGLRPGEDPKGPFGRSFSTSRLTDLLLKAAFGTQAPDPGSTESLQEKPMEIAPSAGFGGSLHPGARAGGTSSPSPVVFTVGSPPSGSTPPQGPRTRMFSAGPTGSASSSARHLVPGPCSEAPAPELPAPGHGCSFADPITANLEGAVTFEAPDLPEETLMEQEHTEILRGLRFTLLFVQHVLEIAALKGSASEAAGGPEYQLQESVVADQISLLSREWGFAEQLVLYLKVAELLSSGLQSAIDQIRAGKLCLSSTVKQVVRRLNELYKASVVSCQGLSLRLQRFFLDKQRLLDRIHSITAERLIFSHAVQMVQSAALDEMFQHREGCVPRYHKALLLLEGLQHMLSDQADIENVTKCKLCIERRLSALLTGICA
Put plainly: ULK1 inhibition assay. Type of experiment: biochemical. As to conditions: * = tested as a mixture of regioisomers.
`CCN1CCOc2cc(Nc3ncc(C(F)(F)F)c(NC4CC4)n3)cnc21` [Compound 344]: the IC50 is < 0.2 µM.
To `O=C(Nc1ccc(Nc2ncc(C(F)(F)F)c(NC3CC3)n2)cc1)C1CC1` [Compound 312] belongs < 0.2 µM.
Take `Nc1nc(Nc2ccc3c(c2)CCC(=O)N3)ncc1C(F)(F)F` [Compound 209]: the IC50 was 0.2 to 2 µM.
To `Nc1ccccc1Oc1nc(Nc2ccc3c(c2)OCO3)ncc1Br` [Compound 321b] belongs < 0.2 µM.
Under `COc1cc(Nc2ncc(Br)c(Oc3ccccc3-c3nc(C)co3)n2)cc(OC)c1OC` [Compound 290] stands > 2 µM; under `CNC(=O)c1ccccc1Nc1nc(Nc2ccc3c(c2)CCC(=O)N3)ncc1Cl` [Compound 19], < 0.2 µM; under `COc1ccc(Nc2nc(Nc3ccc4c(c3)CCC(=O)N4)ncc2Br)cn1` [Compound 156], < 0.2 µM.
Under `COc1cc(Nc2ncc(Br)c(Oc3ccccc3O)n2)cc(OC)c1OC` [Compound 336] stands > 2 µM; under `CNC(=O)c1c(O)cccc1Oc1nc(Nc2cc(OC)c(OC)c(OC)c2)ncc1Br` [Compound 257], < 0.2 µM.
Regarding `COCc1ccccc1Oc1nc(Nc2cc(OC)c(OC)c(OC)c2)ncc1Br` [Compound 274], the IC50 is < 0.2 µM.
To `O=C1CCc2cc(Nc3ncc(C(F)(F)F)c(NCC4CC4)n3)ccc2N1` [Compound 216] belongs < 0.2 µM; to `Fc1c(Nc2ncc(C(F)(F)F)c(Nc3ccc4c(c3)OCO4)n2)cccc1C(F)(F)F` [Compound 141a], > 2 µM.
To `FC(F)(F)c1cnc(NC2CC2)nc1Nc1ccc2c(c1)OCCO2` [Compound 158b] belongs < 0.2 µM; to `FC(F)(F)c1cnc(Nc2ccc3[nH]ccc3c2)nc1NC1CC1` [Compound 206], < 0.2 µM.
To `CC(=O)Nc1ccccc1Oc1nc(Nc2ccc3c(c2)OCO3)ncc1Br` [Compound 321a] belongs > 2 µM.
On to `O=c1[nH]c2ccc(Nc3ncc(Br)c(NC4CC4)n3)cc2[nH]1` [Compound 236], for which the IC50 was < 0.2 µM.
Regarding `Oc1ncc(C(F)(F)F)c(NC2CC2)n1` [Compound 189], the IC50 is > 2 µM.
Under `COc1ccc(C)c(Nc2ncc(Cl)c(Nc3cccc(CC#N)c3)n2)c1` [Compound 54] stands > 2 µM; under `COc1cccc(Nc2nc(Nc3ccc4c(c3)CCC(=O)N4)ncc2Cl)c1` [Compound 143a], < 0.2 µM; under `O=C(C1CC1)N1CCc2cc(Nc3ncc(C(F)(F)F)c(NC4CC4)n3)ccc2C1` [Compound 332], < 0.2 µM.
To `CNC(=O)c1ccccc1Oc1nc(Nc2cc(C)ccc2C)ncc1C(F)(F)F` [Compound 104] belongs > 2 µM.
To `CNC(=O)c1ccccc1Nc1nc(Nc2ccc(N3CCOCC3)cc2OC)ncc1Cl` [Compound 12] belongs < 0.2 µM; to `CNC(=O)c1ccccc1Nc1nc(Nc2ccc(N3CCOCC3)cc2OC)ncc1C(F)(F)F` [Compound 39], < 0.2 µM.
`COc1cc(N2CCOCC2)ccc1Nc1ncc(C(F)(F)F)c(Nc2ccc3c(c2)CCC(=O)N3)n1` [Compound 123b]: the IC50 is < 0.2 µM.
Under `COc1ccc(Nc2nc(Nc3ccc(N4CCOCC4)cc3OC)ncc2C(F)(F)F)cn1` [Compound 40] stands > 2 µM.
In the case of `CNC(=O)c1ccccc1Oc1ccnc(Nc2cc(OC)c(OC)c(OC)c2)n1` [Compound 239], the IC50 is > 2 µM.
Under `COc1cc(Nc2ncc(Br)c(Oc3cccc(O)c3[N+](=O)[O-])n2)cc(OC)c1OC` [Compound 354] stands > 2 µM; under `Oc1nc(Nc2cnc3[nH]ccc3c2)ncc1C(F)(F)F` [Compound 326], > 2 µM; under `O=C1CCc2cc(Nc3nc(OC4Cc5ccccc5C4)ncc3C(F)(F)F)ccc2N1` [Compound 180b], > 2 µM.
Under `COc1cc(Nc2ncc(C(F)(F)F)c(NCc3cccc(S(C)(=O)=O)c3)n2)cc(OC)c1OC` [Compound 31] stands < 0.2 µM; under `CC(Cl)CNc1nc(Nc2ccc3c(c2)CCC(=O)N3)ncc1C(F)(F)F` (stereo not drawn) [Compound 183b], < 0.2 µM; under `FC(F)(F)c1cnc(Nc2cccnc2)nc1NC1CC1` [Compound 196], > 2 µM.
Under `COc1ccc(C)c(Nc2ncc(Cl)c(Nc3nccc(C)n3)n2)c1` [Compound 55] stands > 2 µM.
Turning to `COc1ccc(C)c(Nc2ncc(Cl)c(Nc3ccc(OC)nc3)n2)c1` [Compound 34], the IC50 is > 2 µM.
To `COc1ccc(Nc2nc(Nc3cc(OC)c(OC)c(OC)c3)ncc2Cl)cn1` [Compound 24] belongs < 0.2 µM.
To `FC(F)(F)c1cnc(N2CCCC2)nc1Nc1ccc2c(c1)OCO2` [Compound 164a] belongs > 2 µM; to `Nc1nc(Nc2cnc3[nH]ccc3c2)ncc1C(F)(F)F` [Compound 217], > 2 µM; to `FC(F)(F)c1cnc(Nc2ccc3c(c2)OCCO3)nc1NC1CC1` [Compound 158a], < 0.2 µM.
To `CNC(=O)c1ccccc1Oc1nc(Nc2cccc(OC)c2OC)ncc1C(F)(F)F` [Compound 115a] belongs > 2 µM; to `COc1cc(Nc2ncc(Br)c(Oc3cccc4cc[nH]c34)n2)cc(OC)c1OC` [Compound 329a], > 2 µM.
Take `CNS(=O)(=O)c1ccccc1Nc1nc(Nc2cc(OC)c(OC)c(OC)c2)ncc1Br` [Compound 237]: the IC50 is 0.2 to 2 µM.
Take `FC(F)(F)c1cnc(Nc2cccc(Oc3ccccc3)c2)nc1Nc1ccc2c(c1)OCO2` [149*]: the IC50 was > 2 µM.
To `O=C1CCc2cc(Nc3ncc(C(F)(F)F)c(Nc4ccccc4CO)n3)ccc2N1` [Compound 347] belongs < 0.2 µM.
As for `FC(F)(F)c1cnc(Nc2ccc3c(c2)CCC3)nc1Nc1ccc2c(c1)OCO2` [140*], the concentration for half-maximal inhibition (IC50) was < 0.2 µM.
Under `O=C1CCc2cc(Nc3ncc(C(F)(F)F)c(NC4CCCC4)n3)ccc2N1` [Compound 160a] stands < 0.2 µM; under `CN(C)c1nc(Nc2ccc3c(c2)CCC(=O)N3)ncc1C(F)(F)F` [Compound 220b], < 0.2 µM; under `Oc1ccc(CCNc2ncc(C(F)(F)F)c(NC3CC3)n2)cc1` [Compound 246], 0.2 to 2 µM.
To `COc1cc(Nc2ncc(Br)c(Oc3ccccc3NC(=O)C(C)(C)C)n2)cc(OC)c1OC` [Compound 320] belongs > 2 µM.
`COc1cc(N2CCOCC2)ccc1Nc1ncc(C(F)(F)F)c(NCc2cccc(S(C)(=O)=O)c2)n1` [Compound 52]: the IC50 is > 2 µM.
Under `FC(F)(F)c1cnc(NC2CCC2)nc1Nc1ccc2c(c1)OCO2` [Compound 168a] stands < 0.2 µM; under `O=C1CCc2cc(Nc3nccc(NC4CC4)n3)ccc2N1` [Compound 200], > 2 µM; under `COc1cc(Nc2ncc(Br)c(Oc3ccccc3NC(=O)C(F)(F)F)n2)cc(OC)c1OC` [Compound 323], < 0.2 µM.
Under `O=C1CCc2cc(Nc3ncc(Br)c(NC4CC4)n3)ccc2N1` [Compound 159] stands < 0.2 µM; under `O=C1CCc2cc(Nc3nc(Nc4ccccc4N4CCOCC4)ncc3C(F)(F)F)ccc2N1` [Compound 118b], > 2 µM.
Under `CNC(=O)c1ccccc1Nc1nc(Nc2cc3c(cc2C)OCO3)ncc1Cl` [Compound 57] stands < 0.2 µM; under `CNC(=O)c1ccccc1Oc1nc(Nc2cc(OC)c(OC)c(OC)c2)ncc1C(F)(F)F` [Compound 92], < 0.2 µM; under `CN(c1ccccc1)c1ncc(C(F)(F)F)c(Nc2ccc3c(c2)CCC(=O)N3)n1` [Compound 184b], < 0.2 µM.
With `O=C1CCCc2cc(Nc3ncc(C(F)(F)F)c(NC4CC4)n3)ccc21` [Compound 301], the IC50 is < 0.2 µM.
Under `COc1ccc(C)c(Nc2ncc(Cl)c(Nc3cccc(S(=O)(=O)N(C)C)c3)n2)c1` [Compound 45] stands > 2 µM; under `COC(=O)Nc1ccccc1Oc1nc(Nc2cc(OC)c(OC)c(OC)c2)ncc1Br` [Compound 296], < 0.2 µM.
Under `COc1cc(Nc2ncc(Br)c(-n3nnc4ccccc43)n2)cc(OC)c1OC` [Compound 331a] stands > 2 µM; under `O=C1CCc2cc(Nc3ncc(C(F)(F)F)c(NCc4ccccc4)n3)ccc2N1` [Compound 43], < 0.2 µM.
Under `COc1cc(Nc2ncc(Cl)c(Nc3ccccc3CO)n2)cc(OC)c1OC` [Compound 348] stands > 2 µM; under `CNC(=O)c1ccccc1Oc1nc(Nc2ccc(OC)cc2)ncc1C(F)(F)F` [Compound 105a], > 2 µM; under `FC(F)(F)c1cnc(N2CCC2)nc1Nc1ccc2c(c1)OCO2` [Compound 166a], > 2 µM.
With `COc1cc(Nc2ncc(Br)c(Oc3ccccc3)n2)cc(OC)c1OC` [Compound 266], the IC50 is < 0.2 µM.
